Laboratory results published in BindingDB's records for doi:10.1016/s0960-894x(02)00206-8 (Bristol-Myers Squibb, 2002).

Assay: In vitro C-C chemokine receptor type 3 activity of compound by using eotaxin induced human eosinophil chemotaxis assay

Row | IC50 [µM] | Compound
1 | 0.2 | N#Cc1cccc(NC(=O)NCCCN2CCC(Cc3ccc(Cl)cc3)CC2)c1 [1-{3-[4-(4-Chloro-benzyl)-piperidin-1-yl]-propyl}-3-(3-cyano-phenyl)-urea]
2 | 0.02 | CC[C@H](O)[C@H]1C[C@@H](Cc2ccccc2)CCN1CCCNC(=O)Nc1cccc(C(C)=O)c1 [1-(3-Acetyl-phenyl)-3-{3-[(2R,4S)-4-benzyl-2-((S)-1-hydroxy-propyl)-piperidin-1-yl]-propyl}-urea]
3 | 0.08 | N#Cc1cccc(NC(=O)NCCCN2CCC(Cc3ccc(F)cc3)CC2)c1 [1-(3-Cyano-phenyl)-3-{3-[4-(4-fluoro-benzyl)-piperidin-1-yl]-propyl}-urea]
